Assay results: patent US10221163B2 (priority 2015, dated 2019)
Read-outs that look alike come from different tables or passages of the source.

Assays:
IMP-1 = IMP-1 (Serratia marcescens, UniProt P52699); assay: biochemical; assay type: biochemical; details: fluorescence assay, CCF2-FA substrate, 2 pM enzyme, 2 hours at 25° C.; read-out: IMP-1 IC50
Procedure, shortened: (§1)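 Fluorescence assay of metallo-β-lactamase activity using CCF2-FA, a cephalosporin-linked 7-hydroxycoumarin–fluorescein substrate. Inhibitor, enzyme and substrate were incubated together for 2 hours at 25° C. IC50 came from a 4-parameter fit of inhibition versus inhibitor concentration.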

NDM-1 = NDM-1 (Klebsiella pneumoniae, UniProt C7C422); assay: biochemical; assay type: biochemical; details: fluorescence assay, CCF2-FA substrate, 1 pM enzyme, 2 hours at 25° C.; read-out: NDM-1 IC50
Procedure, shortened: as §1

VIM-1 = VIM-1 (Pseudomonas aeruginosa (strain ATCC 15692 / DSM 22644 / CIP 104116 / JCM 14847 / LMG 12228 / 1C / PRS 101 / PAO1), UniProt A0A0F7KYQ8); assay: biochemical; details: CCF2-FA substrate, 30 pM enzyme, 2 hours at 25° C.
Procedure, shortened: as §1

[1] = system: Pseudomonas aeruginosa efflux− (MB9799), IMP-1; assay type: cell-based; details: concentration restoring susceptibility to imipenem at 2 μg/mL in the presence of a class A, C, D serine β-lactamase inhibitor closely related to relebactam
Procedure, shortened: (§2)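 PAO1 pair, broth microdilution; fixed β-lactam (imipenem/ceftazidime) at ~CLSI breakpoint + fixed class A/C BLI for AmpC; serial MBLi titration; endpoint = MBLi conc. restoring susceptibility; MB9798:MB9799 ratio = efflux liability.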

[2] = system: Escherichia coli expressing NDM-1 (CLB30005, CLB30016); assay type: cell-based; details: with imipenem 1 μg/ml; 95% inhibition of bacterial growth
Procedure, shortened: (§3)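 Colonies grown overnight on blood agar at 35° C were suspended in saline, diluted 1:100 into 1.1×CAMHB and dispensed. Imipenem was added to 1 μg/ml, then test compound. After 22 hours to 24 hours at 35° C, absorbance was recorded.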

[3] = system: Serratia marcescens expressing IMP-1 (CL5741); assay type: cell-based; details: with imipenem 1 μg/ml; 95% inhibition of bacterial growth
Procedure, shortened: as §3

[4] = system: Klebsiella pneumoniae expressing VIM-1 (IHMA599644); assay type: cell-based; details: with imipenem 1 μg/ml; 95% inhibition of bacterial growth
Procedure, shortened: as §3

[5] = system: Pseudomonas aeruginosa efflux+ (MB9798), IMP-1; assay type: cell-based; details: concentration restoring susceptibility to imipenem at 2 μg/mL in the presence of a class A, C, D serine β-lactamase inhibitor closely related to relebactam
Procedure, shortened: as §2

[6] = system: Pseudomonas aeruginosa MB9798 vs MB9799; details: ratio MITC95 PA_9798/MITC95 PA_9799
Procedure, shortened: as §2

[7] = fluorescence assay, read-out: VIM-1 IC50

Chain of NDM-1 (C7C422 whole entry, looked up, species assumed): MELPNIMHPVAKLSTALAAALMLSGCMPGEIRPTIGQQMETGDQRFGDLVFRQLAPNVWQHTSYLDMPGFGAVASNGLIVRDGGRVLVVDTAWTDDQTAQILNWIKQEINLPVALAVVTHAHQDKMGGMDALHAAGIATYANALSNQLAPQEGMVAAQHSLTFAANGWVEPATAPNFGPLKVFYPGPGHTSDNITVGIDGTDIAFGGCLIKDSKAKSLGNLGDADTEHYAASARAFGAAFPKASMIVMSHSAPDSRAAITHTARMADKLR
Chain of IMP-1 (P52699 whole entry, looked up, species assumed): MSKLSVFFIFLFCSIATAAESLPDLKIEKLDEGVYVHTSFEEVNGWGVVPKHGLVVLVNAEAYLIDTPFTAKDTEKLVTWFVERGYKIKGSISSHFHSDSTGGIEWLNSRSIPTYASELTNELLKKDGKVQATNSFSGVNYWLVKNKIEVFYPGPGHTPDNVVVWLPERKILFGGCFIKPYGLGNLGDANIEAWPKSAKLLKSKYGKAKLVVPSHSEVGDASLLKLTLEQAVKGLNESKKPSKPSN

Row | Structure (SMILES) | IC50 (IMP-1) [nM] | IC50 (NDM-1) [nM] | IC50 (VIM-1; [7]) [nM] | P. aeruginosa expressing IMP-1, efflux − (MB9799) MITC95 [1] [µM] | Escherichia coli expressing NDM-1 (CLB30016) MITC95 [2] [µM] | Serratia marcescens expressing IMP-1 (CL5741) MITC95 [3] [µM] | Klebsiella pneumoniae expressing VIM-1 (IHMA599644) MITC95 [4] [µM] | P. aeruginosa expressing IMP-1, efflux + (MB9798) MITC95 [5] [µM] | Efflux ratio [6] | IC50 (VIM-1; VIM-1 IC50, fluorescence assay) [nM]
1 | NS(=O)(=O)c1c(S(=O)(=O)N[C@@H]2CCNC2)ccc(-c2ccc3c(c2)C(=O)NC3)c1-c1nnn[nH]1 [Example 138, (R)-4-(3-oxoisoindolin-5-yl)-N1-(pyrrolidin-3-yl)-3-(1H-tetrazol-5-yl)benzene-1,2-disulfonamide] | 0.275 | 0.124 | 0.15 | 1.563 | 3.125 | 3.125 | 3.125 | 1.563 | 1.00 | 
2 | NS(=O)(=O)c1c(S(=O)(=O)N[C@@H]2CCNC2)ccc(-c2cccc3cn[nH]c23)c1-c1nnn[nH]1 [Example 139, (R)-4-(1H-indazol-7-yl)-N1-(pyrrolidin-3-yl)-3-(1H-tetrazol-5-yl)benzene-1,2-disulfonamide] | 0.41 | 0.0582 |  | 0.7813 | 0.7813 | 1.563 | 3.125 | 0.7813 | 1.00 | 0.141
3 | NS(=O)(=O)c1c(S(=O)(=O)N[C@@H]2CCNC2)ccc(-c2cnc3ccccn23)c1-c1nnn[nH]1 [Example 140, (R)-4-(imidazo[1,2-a]pyridin-3-yl)-N1-(pyrrolidin-3-yl)-3-(1H-tetrazol-5-yl)benzene-1,2-disulfonamide] | 0.779 | 0.0867 | 0.111 | 0.7813 | 0.7813 | 1.563 | 1.563 | 1.563 | 2.00 | 
4 | C[C@H]1NC(=O)O[C@H]1c1ccc(-c2ccc(S(=O)(=O)N[C@@H]3CCNC3)c(S(N)(=O)=O)c2-c2nnn[nH]2)cc1 [Example 141, 4′-((4R,5S)-4-methyl-2-oxooxazolidin-5-yl)-N4-((R)-pyrrolidin-3-yl)-2-(1H-tetrazol-5-yl)-[1,1′-biphenyl]-3,4-disulfonamide] | 0.0408 | 0.0186 | 0.0623 | 1.563 | 3.125 | 6.25 | 6.25 | 1.563 | 1.00 | 
5 | Nc1nc2c(-c3ccc(S(=O)(=O)N4CCNCC4)c(S(N)(=O)=O)c3-c3nn[nH]n3)cccc2s1 [Example 142, 3-(2-Aminobenzo[d]thiazol-4-yl)-6-(piperazin-1-ylsulfonyl)-2-(2H-tetrazol-5-yl)benzenesulfonamide] | 0.636 | 0.185 | 0.558 | 1.172 | 3.906 | 1.563 | 3.125 | 1.563 | 1.33 | 
6 | Nc1nc2c(-c3ccc(S(N)(=O)=O)c(S(N)(=O)=O)c3-c3nn[nH]n3)cccc2s1 [Example 143, 4-(2-aminobenzo[d]thiazol-4-yl)-3-(2H-tetrazol-5-yl)benzene-1,2-disulfonamide] | 0.266 | 0.0849 | 0.22 | 1.563 | 3.125 | 1.563 | 12.5 | 0.7813 | 0.50 | 
7 | Nc1nc2c(-c3ccc(S(=O)(=O)NCCO)c(S(N)(=O)=O)c3-c3nn[nH]n3)cccc2s1 [Example 144, 4-(2-aminobenzo[d]thiazol-4-yl)-N1-(2-hydroxyethyl)-3-(2H-tetrazol-5-yl)benzene-1,2-disulfonamide] | 0.288 | 0.0898 | 0.162 | 3.125 | 12.5 | 3.125 | 12.5 | 3.125 | 1.00 | 
8 | NCCNS(=O)(=O)c1ccc(-c2cccc3sc(N)nc23)c(-c2nn[nH]n2)c1S(N)(=O)=O [Example 145, 4-(2-aminobenzo[d]thiazol-4-yl)-N1-(2-aminoethyl)-3-(2H-tetrazol-5-yl)benzene-1,2-disulfonamide] | 0.221 | 0.0343 | 0.182 | 0.7813 | 0.7813 | 0.7813 | 1.563 | 0.3906 | 0.50 | 
9 | Nc1nc2c(-c3ccc(S(=O)(=O)NC4CNC4)c(S(N)(=O)=O)c3-c3nn[nH]n3)cccc2s1 [Example 146, 4-(2-aminobenzo[d]thiazol-4-yl)-N1-(azetidin-3-yl)-3-(2H-tetrazol-5-yl)benzene-1,2-disulfonamide] | 0.356 | 0.0372 | 0.224 | 0.7813 | 3.125 | 0.7813 | 1.563 | 0.3906 | 0.50 | 
10 | Nc1nc2c(-c3ccc(S(=O)(=O)N4CC(N)C4)c(S(N)(=O)=O)c3-c3nn[nH]n3)cccc2s1 [Example 147, 6-((3-aminoazetidin-1-yl)sulfonyl)-3-(2-aminobenzo[d]thiazol-4-yl)-2-(2H-tetrazol-5-yl)benzenesulfonamide] | 0.494 | 0.55 | 0.559 | 3.125 | 25 | 6.25 | 12.5 | 3.125 | 1.00 | 
11 | Nc1nc2c(-c3ccc(S(=O)(=O)N4CCC(N)CC4)c(S(N)(=O)=O)c3-c3nn[nH]n3)cccc2s1 [Example 148, 3-(2-aminobenzo[d]thiazol-4-yl)-6-((4-aminopiperidin-1-yl)sulfonyl)-2-(2H-tetrazol-5-yl)benzenesulfonamide] | 0.49 | 0.213 | 0.749 | 1.563 | 12.5 | 3.125 | 6.25 | 3.125 | 2.00 | 
12 | Nc1nc2c(-c3ccc(S(=O)(=O)NCC4(N)CC4)c(S(N)(=O)=O)c3-c3nn[nH]n3)cccc2s1 [Example 149, 4-(2-aminobenzo[d]thiazol-4-yl)-N1-((1-aminocyclopropyl)methyl)-3-(2H-tetrazol-5-yl)benzene-1,2-disulfonamide] | 0.993 | 0.216 | 0.739 | 3.125 | 12.5 | 6.25 | 6.25 | 3.125 | 1.00 | 
13 | CN(C)S(=O)(=O)c1ccc(-c2cccc3sc(N)nc23)c(-c2nn[nH]n2)c1S(N)(=O)=O [Example 151, 4-(2-aminobenzo[d]thiazol-4-yl)-N1,N1-dimethyl-3-(2H-tetrazol-5-yl)benzene-1,2-disulfonamide] | 2.43 | 5.94 | 9.22 | 3.125 | 12.5 | 6.25 | 50 | 50 | 16.00 | 
